Results published in patent US20220192996A1, “CORE-SHELL STRUCTURE, PREPARATION, MEDICINE FOR EXTERNAL APPLICATION, TAPE AGENT AND COSMETIC PRODUCT” (SEKISUI CHEMICAL CO., LTD., priority 2019, published 2022).
Where a name gives a salt, the structure may show the parent alone.

Experiments:
dorsal skin of a rabbit = assay: Primary irritation index of the active ingredient (4% by weight in Plastibase); format: in vivo; conditions: 24 h enclosed application
Procedure: The phrase “low skin irritation” means skin irritation having a primary irritation index (P.I.I.) of 5 or less. The primary irritation index can be measured by the following method.
An active ingredient is added and mixed to an ointment base, Plastibase (manufactured by Taisho Pharmaceutical Co., Ltd.) so as to be 4% by weight based on the total weight, and dispersed to produce a preparation.
The dorsal skin of a rabbit is shaved with an electric clipper (with an electric shaver if necessary). On the dorsal healthy skin, two points in each of right and left sides of the dorsal midline, that is, four points in total are set to be an administration site. Next, the produced preparation is taken out with a spatula and spread evenly on a piece of lint having a size of 2 cm×2 cm, and the piece of lint is attached to the administration site. The piece of lint is fixed by covering with a non-woven adhesive bandage (manufactured by Nichiban Co., Ltd., MESHPORE, No. 50). Then, the administration sites are altogether wrapped with gauze and enclosed by covering with an adhesive cloth elastic bandage (manufactured by Nichiban Co., Ltd., ELASTOPORE, No. 100). The enclosure is released 24 hours after the start of administration, and the administered samples are removed.
The skin reaction is visually observed with the naked eye 24 hours after the administration (30 minutes after the release of the enclosure and the removal of the administered samples). […]
Specifically, for each administered sample at each time of observation, the individual score of the skin reaction at the administration site of each rabbit (the total of scores of erythema/eschar formation and edema formation) is calculated. Then, the primary irritation index (P.I.I.) is calculated from the individual scores at 24 hours and 72 hours after the administration (the score at 48 hours after the administration is not added). Specifically, the primary irritation index is calculated using Formulae (1) and (2) described below. […]

[1] = Octanol/water partition coefficient; format: physicochemical; conditions: Log10, octanol / aqueous buffer pH 7
Procedure: In the present invention, the octanol/water partition coefficient is determined from the concentration of the active ingredient in each phase by adding the active ingredient to octanol and an aqueous buffer solution having a pH of 7 in a flask and then shaking the flask. Specifically, the octanol/water partition coefficient can be determined by calculating using the formula: octanol/water partition coefficient=Log10 (concentration in octanol phase/concentration in aqueous phase).

Structure (SMILES)	primary irritation index (P.I.I.) of the active ingredient (dorsal skin of a rabbit)	octanol/water partition coefficient [1]	logD ([1]; octanol / aqueous buffer solution)
CC(C(=O)O)c1ccc(CC2CCCC2=O)cc1 (centres unmarked) [loxoprofen sodium dihydrate]	0.3	–	–
CC12CC3CC(C)(C1)CC(N)(C3)C2 [memantine hydrochloride]	2.5	–	–
CCN(C)C(=O)Oc1cccc([C@H](C)N(C)C)c1 [rivastigmine]	0.5	–	–
CCCc1nc(C)c2c(=O)[nH]c(-c3cc(S(=O)(=O)N4CCN(CC)CC4)ccc3OCC)nn12 [vardenafil hydrochloride hydrate]	–	0.0	0
